Target: T1, ERR-α (Homo sapiens, UniProt P11474)
T1 construct: made in house; host or cells: Spodoptera frugiperda (Sf9) insect cells, baculovirus
T1 sequence (P11474 with tags, fused parts or gaps): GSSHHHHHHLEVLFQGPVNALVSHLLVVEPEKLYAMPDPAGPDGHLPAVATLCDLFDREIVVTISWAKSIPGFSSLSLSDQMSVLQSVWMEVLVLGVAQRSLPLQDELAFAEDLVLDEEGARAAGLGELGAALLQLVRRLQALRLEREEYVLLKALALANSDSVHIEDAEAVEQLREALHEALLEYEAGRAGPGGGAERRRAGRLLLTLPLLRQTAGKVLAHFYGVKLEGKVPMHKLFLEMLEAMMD
Assay: LC/MS kinetics of association and dissociation for ligands forming a covalent bond to Cys325 of ERR-α
Type: binding
Conditions: dissociation rate by LC/MS with 20-fold excess Compound 2 as competing ligand; 37° C.
Text: The progress of the reaction was also expressed as a fraction of the area observed for the complex of ERR-α and the competing ligand over the sum of total area for the complex of ERR-α with the ligand and the complex of ERR-α with the competing ligand.
where k is the apparent rate constant.

Structure (SMILES): COc1cc(/C=C2\SC(=O)NC2=O)ccc1Oc1ccc(C#N)cc1C(F)(F)F [Compound 1]
- kd: 1.1e-05 s⁻¹

Structure (SMILES): COc1cc(/C=C2\SC(N)=NC2=O)ccc1Oc1ccc(C#N)cc1C(F)(F)F [Compound 5]
- kd: 2.05e-05 s⁻¹

Structure (SMILES): CN1CCN(C2=NC(=O)/C(=C/c3ccc(Oc4ccc(C#N)cc4C(F)(F)F)c(F)c3)S2)CC1 [Compound 4]
- kd: 2.19e-05 s⁻¹

Structure (SMILES): COc1cc(/C=C2\SC(N3CCN(C)CC3)=NC2=O)ccc1Oc1ccc(C#N)cc1C(F)(F)F [Compound 3]
- kd: 1.53e-05 s⁻¹

Reference: US8927297B2, “Methods to measure dissociation rates for ligands that form reversible covalent bonds” (Janssen Pharmaceutica N.V., priority 2009, dated 2015)
